Entries after “also recorded” stand apart in the source; their conditions may differ. Marks after values point to notes of the source that are not given here.

In data set [1] the test system is xylazine/ketamine induced α2-adrenergic receptor-mediated anesthesia. The experiment in a line: xylazine/ketamine induced α2-adrenergic receptor-mediated anesthesia test (emetic potential). The note with it: dose of 3.0 mg/kg. The data set is classed as in vivo. An excerpt: Since emesis is a typical side-effect of phosphodiesterase 4 inhibitors the emetic potential of roflumilast and rolipram was investigated in parallel using the xylazine/ketamine induced α2-adrenergic receptor-mediated anesthesia test. The results confirmed that the two phosphodiesterase 4 inhibitors have different effects on emesis.

The test system of data set [2] is healthy adults (18 to 35 years). The experiment in a line: EEG Event Related Potentials (P600) during VLT in healthy adults. The note with it: single oral dose of 100 mcg. The data set is classed as in vivo, human. The source says:
Event Related Potential Analysis An electroencephalogram (EEG) cap was used to place a set of 32 EEG electrodes according to the international 10-20 system on the subjects. Event Related Potentials (ERPs) were extracted by averaging the responses within an epoch of 100 ms before and 1000 ms after stimulus onset covering P300, N400, and P600. Separate averages were made for correct and incorrect responses within a task and for different trial types. EEG measurements were done simultaneously with VLT testing. ERPs were calculated from the words that were called during immediate recall (encoding), and from the words that were recognized and from those that were not during the recognition condition at 45 minutes. The ERP components of P300, N400, and P600 were compared to examine whether the initial stimulus processing during the learning trials differs from word to word. Finally, ERPs to the old and new items during the recognition task were measured.
Tests of Within-Subjects Contrasts were regarded for immediate and delayed free recall scores and for the summed immediate recall score (i.e. immediate 1+immediate 2+immediate 3). The factor Treatment (4 levels; placebo, roflumilast 100 mcg, roflumilast 300 mcg and roflumilast 1000 mcg) was included as a within subjects factor. […] Peak and latency values of three memory related ERP's were analysed; i.e. P300, N400 and P600. […]

The test system of data set [3] is spatial memory in male C57BL/6NCrl mice. Nature of the data set: Object Location Task (OLT), 24-hour retention interval. The data set is classed as in vivo. The note with it: for d2 index, discrimination index between the new and familiar objects for T2: given 3 hours after T1, T2 after 24 h, mean (SEM). An excerpt: The objective of this study was to evaluate the cognitive improvement effects of Roflumilast on spatial memory employing Object Location Task (OLT) in male C57BL/6NCrl mice. Roflumilast was compared with data of the already established PDE4 inhibitor Rolipram in the same model.
Maintenance of Animals Twenty-four 7 month-old male C57BL/6NCrl mice (Charles River, L'Arbresle, France) were used (average body weights: 27.6 g). The animals were kept under a 12/12-hour light/dark cycle (lights on from 07.00 pm to 07.00 am) with free access to food and water. All testing was done between 09.00 am and maximally 06.00 pm.
Preparation of Compounds for Administration Both rolipram (Sigma-Aldrich St. Louis, USA; MW 275.34) and roflumilast (Biocrea, Radebeul, Germany; MW 403.21) were dissolved in dimethylsulfoxide (DMSO) and kept at 4 ° C.; this stock solution was used for further dilutions in 0.5% methylcellulose. Each of rolipram and roflumilast is used in form of its free base. All injected solutions consisted of 0.5% methylcellulose with a fixed DMSO percentages (1.2%) (vehicle).
Object Location Task Studies in Rodents For the Object Location Task (OLT), doses of 0.01 mg/kg, 0.03 mg/kg and 0.1 mg/kg of Rolipram or Roflumilast or vehicle were administered subcutaneously (s.c.). Based on previous findings, PDE4 inhibitor single administration was performed 3 hours after the first trial as this has an optimum effect on object memory performance. The injection volume was 5 μl/g.
The OLT apparatus consisted of a circular arena, 40 cm in diameter. Half of the 40 cm transparent polyvinyl chloride wall was covered from the outside with white paper. Two objects were placed symmetrically about 10 cm away from the wall on the separation line, between the transparent and covered side of the arena. Four different sets of objects were available: (1) a cone made of brass (maximal diameter 6 cm and total height 3.8 cm), (2) a transparent glass bottle (diameter 2.7 cm, height 8.5 cm) filled with sand and water, (3) a massive metal cube (2.5 cm×5 cm×7.5 cm) with two holes (diameter 1.5 cm), and (4) a massive aluminum cube with a tapering top (4.5 cm×4.5 cm×8.5 cm).
A testing session comprised two trials of 4 minutes. Before each trial, mice were placed in an empty Makrolon cage (incubation cage) for the same amount of time as the trial (4 min). During the first trial (T1), two identical objects were placed symmetrically about 10 cm away from the wall on the separation line between the transparent and covered side of the arena. After the first exploration period of 4 min, the mouse was put back in its home cage. Mice then received treatment at 3 hours post T1. Subsequently, after a predetermined delay interval (24h), the mouse was placed in the apparatus for the second trial of 4 min (T2). Two identical objects as in T1 were used; one object was placed in the previously used position, whereas the other was placed in a novel position. The novel position of the object could either be a fixed distance towards the front or a fixed distance towards the back of the arena for both objects. The times spent exploring each object during T1 and T2 were recorded manually using a personal computer. All objects and locations were used in a balanced manner to exclude possible object and/or location preferences. To avoid olfactory cues, the objects were thoroughly cleaned with 70% ethanol after each trial. The testing order of conditions was determined randomly.
Statistical Data Analysis The measurements reflected the time spent by the mice in exploring each object during T1 and T2. The time spent in exploring the two identical samples in T1 were represented by ‘a1’ and ‘a2’, respectively. The time spent in exploring the sample and the new object in T2 were represented by ‘a’ and ‘b’, respectively. From these exploration times the following variables were calculated: e1, e2, and d2 (Table 1). The d2 index is a relative measure of discrimination corrected for exploratory activity. […]

For `O=C(Nc1c(Cl)cncc1Cl)c1ccc(OC(F)F)c(OCC2CC2)c1` [roflumilast, N-(3,5-dichloropyridin-4-yl)-3-cyclopropylmethoxy-4-difluoromethoxybenzamide], in data set [1], the emetic potential entry is reported as “tendency towards emetic potential”. Further, the “amplitude of Event-Related Potential P600 during VLT” value in data set [2] was “strongest increase of amplitude”; in data set [2] (listed as Roflumilast), “increased amplitude”. Also, the entries for the “d2 index, discrimination index between the new and familiar objects for T2” value in data set [3] (0.01 mg/kg s.c.), in data set [3] (0.03 mg/kg s.c.) and in data set [3] (0.1 mg/kg s.c.) were 0.04 (0.05), 0.34 (0.03) ### and 0.00 (0.06), respectively. In addition, the “d2 index compared with the vehicle condition (post-hoc Bonferroni t-test)” value in data set [3] (0.03 mg/kg s.c.) is given as “differed significantly from the vehicle condition”. In addition, in data set [3] (0.03 mg/kg s.c., after twenty-four hours), the “d2 index compared with zero (one-sample t-test)” value is on record as “significantly differed from zero”. Also, the “effect on spatial memory measured by the object location task test” value is recorded as “nearly no effect” in data set [3] (single subcutaneous administration of 0.01 mg/kg); “effective; also recorded: pronounced effect” in data set [3] (single subcutaneous administration of 0.03 mg/kg, 0.03 mg/kg); “completely no effect” in data set [3] (single subcutaneous administration of 0.1 mg/kg).

(Values after patent US10357486B2, “Treatment of cognitive impairment with PDE4 inhibitor” (Universiteit Maastricht, priority 2013, dated 2019).)
